# Active and inactive are the calls of the source. The calls are words filed in the database; no cut-off is given here.
# Assays:
# [1] = biological target: Calcium/calmodulin-dependent protein kinase type II subunit delta (Homo sapiens) (UniProt Q13557); assay: Inhibition of recombinant human full-length His-tagged CAMK2D expressed in insect cells at 2 uM using Ser/Thr 04 as substrate measured after 1 hr by Z'-LYTE assay relative to control; details: Insect cell
# [2] = biological target: Ribosomal protein S6 kinase alpha-4 (Homo sapiens) (UniProt O75676); assay: Inhibition of recombinant human full length GST-tagged RPS6KA4 expressed in insect cells at 2 uM using Ser/Thr 01 as substrate measured after 1 hr by Z'-LYTE assay relative to control; details: Insect cell
# [3] = biological target: cAMP-dependent protein kinase catalytic subunit alpha (Homo sapiens) (UniProt P17612); assay: Inhibition of recombinant human His-tagged PRKACA (1-351 residues) expressed in E.coli at 2 uM using Ser/Thr 01 as substrate measured after 1 hr by Z'-LYTE assay relative to control
# [4] = biological target: Protein kinase C iota type (Homo sapiens) (UniProt P41743); assay: Inhibition of recombinant human full length His-tagged PRKCI expressed in baculovirus expression system at 2 uM using Ser/Thr 07 as substrate measured after 1 hr by Z'-LYTE assay relative to control
# MDA-MB-361 [5] = assay: Induction of apoptosis in human MDA-MB-361 cells assessed as change in AKT phosphorylation at T308 level at 0.05 to 5 micromol/L incubated for 48 hrs by Western blot analysis; format: functional, cell-based; details: dose 0.05-5 µmol/L
# [6] = biological target: Serine/threonine-protein kinase Nek4 (Homo sapiens) (UniProt P51957); assay: Inhibition of recombinant human full length GST-tagged NEK4 expressed in insect cells at 2 uM using Ser/Thr 17 as substrate measured after 1 hr by Z'-LYTE assay relative to control; details: Insect cell
# A498 [7] = assay: Antitumor activity against human A498 cells xenografted in female nude mouse model assessed as tumor regression at 50 mg/kg, po qd administered as 5 days on/2 days off regimen for 4 cycles; format: functional, organism-based; details: time 28.0 day
# [8] = biological target: Serine/threonine-protein kinase B-raf (Homo sapiens) (UniProt P15056); assay: Inhibition of recombinant human full-length GST tagged BRAF expressed in insect cells at 2 uM using Ser/Thr 03 as substrate measured after 1 hr by Z'-LYTE assay relative to control; details: Insect cell
# Serine/threonine-protein kinase B-raf (Homo sapiens), sequence (P15056 whole entry): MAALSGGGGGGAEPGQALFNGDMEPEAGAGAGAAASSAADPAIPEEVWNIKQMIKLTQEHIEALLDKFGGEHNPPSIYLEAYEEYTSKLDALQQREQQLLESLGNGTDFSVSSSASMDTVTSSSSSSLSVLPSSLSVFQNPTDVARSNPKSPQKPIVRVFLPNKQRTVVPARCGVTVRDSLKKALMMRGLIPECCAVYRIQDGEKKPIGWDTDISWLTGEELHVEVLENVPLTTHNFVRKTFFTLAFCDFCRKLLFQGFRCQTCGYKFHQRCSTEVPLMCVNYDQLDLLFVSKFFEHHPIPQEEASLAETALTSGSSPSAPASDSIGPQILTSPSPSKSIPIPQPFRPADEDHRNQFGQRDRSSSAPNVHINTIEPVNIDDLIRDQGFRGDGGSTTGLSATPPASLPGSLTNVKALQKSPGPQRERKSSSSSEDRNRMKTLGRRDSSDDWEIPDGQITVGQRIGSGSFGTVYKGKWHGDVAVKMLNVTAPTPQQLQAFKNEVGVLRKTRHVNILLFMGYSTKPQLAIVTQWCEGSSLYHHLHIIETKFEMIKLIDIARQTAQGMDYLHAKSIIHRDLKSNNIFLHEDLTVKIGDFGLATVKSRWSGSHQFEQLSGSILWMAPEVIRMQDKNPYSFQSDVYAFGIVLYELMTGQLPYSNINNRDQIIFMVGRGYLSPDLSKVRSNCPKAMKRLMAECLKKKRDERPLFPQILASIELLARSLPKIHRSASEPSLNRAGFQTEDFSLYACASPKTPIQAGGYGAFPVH
# [9] = biological target: Tyrosine-protein kinase HCK (Homo sapiens) (UniProt P08631); assay: Inhibition of recombinant human full-length GST-tagged HCK expressed in insect cells at 2 uM using Tyr 02 as substrate measured after 1 hr by Z'-LYTE assay relative to control; details: Insect cell
# Tyrosine-protein kinase HCK (Homo sapiens), sequence (P08631 2-526 limits assumed): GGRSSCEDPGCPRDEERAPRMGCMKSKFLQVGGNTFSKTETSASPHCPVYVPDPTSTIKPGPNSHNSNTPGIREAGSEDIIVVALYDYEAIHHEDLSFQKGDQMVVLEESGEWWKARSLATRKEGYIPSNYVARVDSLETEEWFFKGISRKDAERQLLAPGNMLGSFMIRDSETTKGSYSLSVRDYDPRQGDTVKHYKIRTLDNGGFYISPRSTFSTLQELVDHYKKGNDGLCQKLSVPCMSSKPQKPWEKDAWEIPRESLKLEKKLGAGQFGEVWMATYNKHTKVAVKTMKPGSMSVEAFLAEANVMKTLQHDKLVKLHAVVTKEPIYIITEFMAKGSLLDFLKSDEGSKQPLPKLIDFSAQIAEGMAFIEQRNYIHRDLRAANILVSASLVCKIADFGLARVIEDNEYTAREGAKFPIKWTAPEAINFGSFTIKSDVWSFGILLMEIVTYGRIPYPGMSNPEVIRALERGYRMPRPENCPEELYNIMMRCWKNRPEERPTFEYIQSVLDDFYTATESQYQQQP
# [10] = biological target: Serine/threonine-protein kinase BRSK1 (Homo sapiens) (UniProt Q8TDC3); assay: Inhibition of recombinant human full-length GST tagged BRSK1 expressed in baculovirus expression system at 2 uM using Ser/Thr 21 as substrate measured after 1 hr by Z'-LYTE assay relative to control
# Serine/threonine-protein kinase BRSK1 (Homo sapiens), sequence (Q8TDC3 whole entry): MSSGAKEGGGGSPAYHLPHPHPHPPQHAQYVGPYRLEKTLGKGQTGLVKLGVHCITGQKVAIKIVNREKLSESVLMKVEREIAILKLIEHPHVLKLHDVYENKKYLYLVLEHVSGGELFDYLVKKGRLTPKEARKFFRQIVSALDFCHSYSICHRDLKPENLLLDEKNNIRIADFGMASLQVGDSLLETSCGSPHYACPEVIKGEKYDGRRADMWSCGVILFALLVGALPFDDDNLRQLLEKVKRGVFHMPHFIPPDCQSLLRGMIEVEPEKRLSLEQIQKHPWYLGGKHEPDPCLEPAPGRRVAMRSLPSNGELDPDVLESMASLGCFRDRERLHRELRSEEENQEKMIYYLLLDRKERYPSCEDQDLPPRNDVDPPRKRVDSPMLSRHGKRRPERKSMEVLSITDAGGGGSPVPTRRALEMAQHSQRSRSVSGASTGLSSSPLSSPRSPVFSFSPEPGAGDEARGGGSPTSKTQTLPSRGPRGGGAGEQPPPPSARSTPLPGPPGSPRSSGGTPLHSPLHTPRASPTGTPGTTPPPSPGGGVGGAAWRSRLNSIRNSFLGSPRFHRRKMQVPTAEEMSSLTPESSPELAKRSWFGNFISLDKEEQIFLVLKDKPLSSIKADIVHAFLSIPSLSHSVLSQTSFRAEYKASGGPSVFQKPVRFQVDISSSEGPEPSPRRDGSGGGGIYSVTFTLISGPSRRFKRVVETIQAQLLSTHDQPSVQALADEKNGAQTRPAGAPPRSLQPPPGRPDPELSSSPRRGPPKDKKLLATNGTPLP
# MDA-MB-468 = assay: Induction of apoptosis in human MDA-MB-468 cells assessed as increase in G1 phase at 1 micromol/L incubated for 24 hrs by FACS analysis; format: functional, cell-based; details: dose 1.0 µmol/L
# [11] = biological target: Platelet-derived growth factor receptor beta (Homo sapiens) (UniProt P09619); assay: Inhibition of recombinant human His-tagged PDGFRB (558-1106 residues) expressed in baculovirus expression system at 2 uM using Tyr 04 as substrate measured after 1 hr by Z'-LYTE assay relative to control
# Platelet-derived growth factor receptor beta (Homo sapiens), sequence (P09619 whole entry, the tested form may be a part): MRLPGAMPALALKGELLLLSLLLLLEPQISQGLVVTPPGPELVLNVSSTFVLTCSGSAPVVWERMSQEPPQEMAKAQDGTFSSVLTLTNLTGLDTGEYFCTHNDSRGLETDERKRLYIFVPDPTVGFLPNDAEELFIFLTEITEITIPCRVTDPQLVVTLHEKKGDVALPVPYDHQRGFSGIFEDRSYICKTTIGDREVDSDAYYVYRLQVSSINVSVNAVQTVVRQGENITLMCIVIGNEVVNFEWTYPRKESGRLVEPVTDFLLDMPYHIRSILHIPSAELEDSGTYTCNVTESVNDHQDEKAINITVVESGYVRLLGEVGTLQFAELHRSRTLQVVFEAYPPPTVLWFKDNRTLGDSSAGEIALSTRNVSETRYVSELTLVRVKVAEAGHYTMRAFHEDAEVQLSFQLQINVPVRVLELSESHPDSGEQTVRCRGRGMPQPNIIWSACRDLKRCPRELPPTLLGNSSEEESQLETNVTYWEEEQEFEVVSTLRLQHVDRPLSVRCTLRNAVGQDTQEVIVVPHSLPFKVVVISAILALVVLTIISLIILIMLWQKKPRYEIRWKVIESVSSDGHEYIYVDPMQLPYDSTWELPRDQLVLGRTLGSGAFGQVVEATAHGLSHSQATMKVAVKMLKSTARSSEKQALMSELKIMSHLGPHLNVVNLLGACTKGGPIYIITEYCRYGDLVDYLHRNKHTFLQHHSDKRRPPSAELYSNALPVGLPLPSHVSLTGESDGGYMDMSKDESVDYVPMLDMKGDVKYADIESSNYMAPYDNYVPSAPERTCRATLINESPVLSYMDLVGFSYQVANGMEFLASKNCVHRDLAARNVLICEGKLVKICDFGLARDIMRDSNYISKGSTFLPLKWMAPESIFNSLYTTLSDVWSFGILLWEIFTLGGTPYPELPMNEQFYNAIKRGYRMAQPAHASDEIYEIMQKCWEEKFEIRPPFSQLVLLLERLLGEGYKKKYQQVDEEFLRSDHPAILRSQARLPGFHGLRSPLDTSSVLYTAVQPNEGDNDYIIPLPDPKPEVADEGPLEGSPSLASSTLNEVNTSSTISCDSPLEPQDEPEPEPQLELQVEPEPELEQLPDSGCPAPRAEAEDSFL
# U-87 MG = assay: Antitumor activity against human U-87MG cells assessed as reduction in lactate production at 1 micromol/L incubated for 24 hrs relative to control; format: functional, U-87MG ATCC; set-up: scale not given: the % may be the effect or the level left; details: dose 1 µmol/L, at 1 µM
# A498 [12] = assay: Synergistic antitumor activity against human A498 cells xenografted in female nude mouse model assessed as cause in tumor regression at 50 mg/kg, po qd administered as 5 days on/2 days off regimen for 4 cycles in the presence of BEV; format: functional, organism-based; details: time 28.0 day
# [13] = biological target: Serine/threonine-protein kinase MRCK beta (Homo sapiens) (UniProt Q9Y5S2); assay: Inhibition of recombinant human His-tagged CDC42BPB (1-473 residues) expressed in baculovirus expression system at 2 uM using Ser/Thr 13 as substrate measured after 1 hr by Z'-LYTE assay relative to control
# MDA-MB-361 [14] = assay: Antiproliferative activity against human MDA-MB-361 cells assessed as cell growth inhibition incubated for 3 days by MTS assay; format: functional, cell-based; details: MDA-MB-361, 72 h
# HT-29 = assay: Induction of apoptosis in human HT-29 cells assessed as increase in PARP cleavage at 0.3 to 3 micromol/L incubated for 48 hrs by Western blot analysis; format: functional, cell-based; details: dose 0.3-3 µmol/L
# [15] = biological target: cGMP-dependent protein kinase 2 (Homo sapiens) (UniProt Q13237); assay: Inhibition of recombinant human full length GST-tagged PRKG2 expressed in insect cells at 2 uM using Ser/Thr 01 as substrate measured after 1 hr by Z'-LYTE assay relative to control; details: Insect cell
# cGMP-dependent protein kinase 2 (Homo sapiens), sequence (Q13237 whole entry, the tested form may be a part): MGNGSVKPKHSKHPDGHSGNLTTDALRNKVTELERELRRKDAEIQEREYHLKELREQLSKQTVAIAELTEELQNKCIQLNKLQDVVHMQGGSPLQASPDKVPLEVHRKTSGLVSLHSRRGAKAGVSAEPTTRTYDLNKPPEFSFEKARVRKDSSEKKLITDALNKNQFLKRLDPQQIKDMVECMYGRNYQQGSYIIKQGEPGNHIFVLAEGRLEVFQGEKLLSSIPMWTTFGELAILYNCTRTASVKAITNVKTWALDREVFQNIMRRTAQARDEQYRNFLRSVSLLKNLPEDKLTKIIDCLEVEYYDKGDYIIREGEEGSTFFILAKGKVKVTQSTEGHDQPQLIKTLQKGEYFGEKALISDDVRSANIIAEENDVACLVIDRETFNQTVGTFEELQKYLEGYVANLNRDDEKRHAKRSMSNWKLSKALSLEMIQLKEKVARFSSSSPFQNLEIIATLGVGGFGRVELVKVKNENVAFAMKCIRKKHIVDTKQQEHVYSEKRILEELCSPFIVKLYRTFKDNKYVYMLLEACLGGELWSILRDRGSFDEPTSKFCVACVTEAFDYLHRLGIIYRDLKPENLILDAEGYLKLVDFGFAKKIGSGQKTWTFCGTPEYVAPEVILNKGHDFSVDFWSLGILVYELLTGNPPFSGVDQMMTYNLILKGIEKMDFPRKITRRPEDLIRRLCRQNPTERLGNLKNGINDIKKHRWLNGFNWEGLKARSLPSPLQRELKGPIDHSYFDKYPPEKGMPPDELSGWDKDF
# [16] = biological target: Serine/threonine-protein kinase Sgk2 (Homo sapiens) (UniProt Q9HBY8); assay: Inhibition of recombinant human GST-tagged SGK2 (54-427 residues) expressed in insect cells at 2 uM using Ser/Thr 06 as substrate measured after 1 hr by Z'-LYTE assay relative to control; details: Insect cell
# [17] = biological target: Protein kinase C alpha type (Homo sapiens) (UniProt P17252); assay: Inhibition of recombinant human full length GST-tagged PRKCA expressed in baculovirus expression system at 2 uM using Ser/Thr 07 as substrate measured after 1 hr by Z'-LYTE assay relative to control
# [18] = biological target: Dual specificity tyrosine-phosphorylation-regulated kinase 1B (Homo sapiens) (UniProt Q9Y463); assay: Inhibition of recombinant human full-length GST-tagged DYRK1B expressed in insect cells at 2 uM using Ser/Thr 18 as substrate measured after 1 hr by Z'-LYTE assay relative to control; details: Insect cell
# Dual specificity tyrosine-phosphorylation-regulated kinase 1B (Homo sapiens), sequence (Q9Y463 whole entry, looked up): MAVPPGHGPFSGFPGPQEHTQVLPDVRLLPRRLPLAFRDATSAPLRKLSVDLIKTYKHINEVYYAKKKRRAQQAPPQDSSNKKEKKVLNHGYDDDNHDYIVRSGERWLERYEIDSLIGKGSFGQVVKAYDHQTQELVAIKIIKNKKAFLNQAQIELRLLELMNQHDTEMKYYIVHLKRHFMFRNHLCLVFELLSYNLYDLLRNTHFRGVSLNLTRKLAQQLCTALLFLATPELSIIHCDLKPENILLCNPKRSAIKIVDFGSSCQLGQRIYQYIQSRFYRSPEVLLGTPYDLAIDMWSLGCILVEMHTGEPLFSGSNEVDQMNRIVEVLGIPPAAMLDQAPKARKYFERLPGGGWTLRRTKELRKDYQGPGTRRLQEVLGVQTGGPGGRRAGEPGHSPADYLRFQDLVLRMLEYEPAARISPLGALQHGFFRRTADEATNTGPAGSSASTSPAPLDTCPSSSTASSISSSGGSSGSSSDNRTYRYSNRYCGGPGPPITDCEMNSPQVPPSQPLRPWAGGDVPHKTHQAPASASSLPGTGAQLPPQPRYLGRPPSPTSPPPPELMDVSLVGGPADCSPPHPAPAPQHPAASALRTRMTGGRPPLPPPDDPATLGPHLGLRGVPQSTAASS
# MDA-MB-361 [19] = assay: Antitumor activity against human MDA-MB-361 cells assessed as block the accumulation of HIF-1alpha in low oxygen at 0.3 micromol/L incubated for 24 hrs by immunoblot analysis; format: functional, cell-based; details: dose 0.3 µmol/L
# HeLa = assay: Antiproliferative activity against human HeLa cells assessed as cell growth inhibition incubated for 24 hrs by MTS assay; format: functional, cell-based
# [20] = biological target: Tyrosine-protein kinase Lyn (Homo sapiens) (UniProt P07948); assay: Inhibition of recombinant human full length GST-tagged LYN A expressed in baculovirus expression system at 2 uM using Tyr 02 as substrate measured after 1 hr by Z'-LYTE assay relative to control
# Tyrosine-protein kinase Lyn (Homo sapiens), sequence (P07948 2-512 limits assumed): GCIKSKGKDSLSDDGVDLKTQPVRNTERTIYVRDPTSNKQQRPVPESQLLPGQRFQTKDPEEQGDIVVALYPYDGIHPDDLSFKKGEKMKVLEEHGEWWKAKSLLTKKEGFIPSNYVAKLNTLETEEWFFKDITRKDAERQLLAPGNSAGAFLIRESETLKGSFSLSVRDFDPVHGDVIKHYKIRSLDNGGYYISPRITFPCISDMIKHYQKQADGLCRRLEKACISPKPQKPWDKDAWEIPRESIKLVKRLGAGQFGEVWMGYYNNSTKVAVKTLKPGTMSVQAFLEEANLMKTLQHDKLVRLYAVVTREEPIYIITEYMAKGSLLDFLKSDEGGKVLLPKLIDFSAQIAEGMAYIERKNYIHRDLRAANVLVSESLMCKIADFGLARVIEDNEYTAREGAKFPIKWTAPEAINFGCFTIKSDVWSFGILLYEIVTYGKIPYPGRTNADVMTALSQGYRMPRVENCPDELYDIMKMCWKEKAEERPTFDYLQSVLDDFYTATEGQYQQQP
# PC3MM2 = assay: Induction of apoptosis in human PC3MM2 cells assessed as reduction in S phase at 1 micromol/L incubated for 24 hrs by FACS analysis; format: functional, cell-based; details: dose 1.0 µmol/L
# [21] = biological target: 3-phosphoinositide-dependent protein kinase 1 (Homo sapiens) (UniProt O15530); assay: Inhibition of recombinant human full length His-tagged PDK1 expressed in baculovirus expression system at 2 uM using Ser/Thr 06 as substrate measured after 1 hr by Z'-LYTE assay relative to control
smiles,measurement,setting,value
CNC(=O)Nc1ccc(-c2nc(N3CC4CCC(C3)O4)c3cnn(C4CCC5(CC4)OCCO5)c3n2)cc1,inhibition,[1],11%
same,inhibition,[2],1%
same,inhibition,[3],-3%
same,inhibition,[4],6%
same,Activity,MDA-MB-361 [5],inactive
same,inhibition,[6],7%
same,Activity,A498 [7],Active
same,inhibition,[8],6%
same,inhibition,[9],5%
same,inhibition,[10],1%
same,Activity,MDA-MB-468,Active
same,inhibition,[11],2%
same,Activity,U-87 MG,48%
same,Activity,A498 [12],Active
same,inhibition,[13],9%
same,IC50,MDA-MB-361 [14],12 nM
same,Activity,HT-29,inactive
same,inhibition,[15],9%
same,inhibition,[16],5%
same,inhibition,[17],10%
same,inhibition,[18],2%
same,Activity,MDA-MB-361 [19],Active
same,IC50,HeLa,55 nM
same,inhibition,[20],7%
same,Activity,PC3MM2,Active
same,inhibition,[21],3%

# — ChEMBL document CHEMBL5696439 (Cancer Res, 2010)
